SMILES strings stand for the structures.

The assay has as its target T1, GLP-1 Receptor (Homo sapiens, UniProt P43220).
T1 construct: host or cells: HEK293/GLP1R/CRE-LUC (HEK293/CRE-Luc stably expressing the GLP-1 receptor)
The assay can be described thus: GLP-1R agonist cAMP stimulation assay (HEK293/GLP1R/CRE-LUC cells, Cisbio cAMP dynamic 2 kit).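 Note: compounds tested in half-log serial dilution, cAMP detected with cAMP-d2 and anti-cAMP cryptate antibody reagents after 1 h at room temperature.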 Type of assay: cell-based. Conditions: HEK293/CRE-Luc cell line stably expressing the GLP-1 Receptor; 1000 cells/well; 30 min at 37° C.; 0.5 mM IBMX, 0.1% BSA; read-out: GLP1R cAMP Stimulation DR: EC50.

T1 sequence (P43220 24-463, species assumed): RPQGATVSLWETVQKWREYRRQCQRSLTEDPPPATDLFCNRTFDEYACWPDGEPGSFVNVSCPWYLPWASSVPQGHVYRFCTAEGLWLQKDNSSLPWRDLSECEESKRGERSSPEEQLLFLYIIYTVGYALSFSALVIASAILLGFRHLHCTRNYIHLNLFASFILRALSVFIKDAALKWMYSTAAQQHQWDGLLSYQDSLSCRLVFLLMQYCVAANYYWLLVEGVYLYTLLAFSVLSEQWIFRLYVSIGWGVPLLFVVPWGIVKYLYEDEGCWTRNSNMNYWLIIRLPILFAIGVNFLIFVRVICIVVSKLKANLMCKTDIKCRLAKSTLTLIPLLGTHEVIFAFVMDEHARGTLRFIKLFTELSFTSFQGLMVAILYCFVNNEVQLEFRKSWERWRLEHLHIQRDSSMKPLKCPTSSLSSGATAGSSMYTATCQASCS

With `CC1(c2ccc(Cl)cc2F)Oc2cccc(C3CCN(Cc4ncc(/C=C/C(=O)O)n4CCC4CC4)CC3)c2O1` (stereo not shown) [Compound 191, (E)-3-(2-((4-(2-(4-chloro-2-fluorophenyl)-2-methylbenzo[d][1,3]dioxol-4-yl)piperidin-1-yl)methyl)-1-(2-cyclopropylethyl)-1H-imidazol-5-yl)acrylic acid], the EC50 (in general, the concentration giving half of the maximal effect) came out at 0.33 nM. In the case of `CC1(c2ccc(Cl)cc2F)Oc2cccc(C3CCN(Cc4ncc(/C=C/C(=O)O)n4CC4(C#N)CC4)CC3)c2O1` (stereo not shown) [Compound 192, (E)-3-(2-((4-(2-(4-chloro-2-fluorophenyl)-2-methylbenzo[d][1,3]dioxol-4-yl)piperidin-1-yl)methyl)-1-((1-cyanocyclopropyl)methyl)-1H-imidazol-5-yl)acrylic acid], the EC50 is 0.073 nM.

For `CC#CCn1c(/C=C/C(=O)O)cnc1CN1CCC(c2cccc3c2OC(C)(c2ccc(Cl)cc2F)O3)CC1` (stereo not shown) [Compound 193, (E)-3-(1-(but-2-yn-1-yl)-2-((4-(2-(4-chloro-2-fluorophenyl)-2-methylbenzo[d][1,3]dioxol-4-yl)piperidin-1-yl)methyl)-1H-imidazol-5-yl)acrylic acid], the half-maximal effective concentration (EC50) is 0.11 nM.

As to `CC1(c2ccc(Cl)cc2F)Oc2cccc(C3CCN(Cc4ncc(/C=C/C(=O)O)n4CC4COC4)CC3)c2O1` (stereo not shown) [Compound 194, (E)-3-(2-((4-(2-(4-chloro-2-fluorophenyl)-2-methylbenzo[d][1,3]dioxol-4-yl)piperidin-1-yl)methyl)-1-(oxetan-3-ylmethyl)-1H-imidazol-5-yl)acrylic acid], the EC50 was 0.064 nM. For the molecule `COCCCn1c(/C=C/C(=O)O)cnc1CN1CCC(c2cccc3c2OC(C)(c2ccc(Cl)cc2F)O3)CC1` (stereo not shown) [Compound 195, (E)-3-(2-((4-(2-(4-chloro-2-fluorophenyl)-2-methylbenzo[d][1,3]dioxol-4-yl)piperidin-1-yl)methyl)-1-(3-methoxypropyl)-1H-imidazol-5-yl)acrylic acid], the EC50 came out at 0.091 nM. The figure for `COC1(Cn2c(/C=C/C(=O)O)cnc2CN2CCC(c3cccc4c3OC(C)(c3ccc(Cl)cc3F)O4)CC2)CC1` (stereo not shown) [Compound 196, (E)-3-(2-((4-(2-(4-chloro-2-fluorophenyl)-2-methylbenzo[d][1,3]dioxol-4-yl)piperidin-1-yl)methyl)-1-((1-methoxycyclopropyl)methyl)-1H-imidazol-5-yl)acrylic acid] is 0.058 nM; for `CCOCCn1c(/C=C/C(=O)O)cnc1CN1CCC(c2cccc3c2OC(C)(c2ccc(Cl)cc2F)O3)CC1` (stereo not shown) [Compound 197, (E)-3-(2-((4-(2-(4-chloro-2-fluorophenyl)-2-methylbenzo[d][1,3]dioxol-4-yl)piperidin-1-yl)methyl)-1-(2-ethoxyethyl)-1H-imidazol-5-yl)acrylic acid] it is 0.019 nM. On to `C[C@]1(c2ccc(Cl)cc2F)Oc2cccc(C3CCN(Cc4ncc(/C=C/C(=O)O)n4CCOCC(F)(F)F)CC3)c2O1` [Compound 198a, (S,E)-3-(2-((4-(2-(4-chloro-2-fluorophenyl)-2-methylbenzo[d][1,3]dioxol-4-yl)piperidin-1-yl)methyl)-1-(2-(2,2,2-trifluoroethoxy)ethyl)-1H-imidazol-5-yl)acrylic acid], for which the EC50 turned out to be 0.0095 nM. The figure for `Cc1ncoc1Cn1c(/C=C/C(=O)O)cnc1CN1CCC(c2cccc3c2OC[C@@H](c2ccc(Cl)cc2)O3)CC1` [Compound 199a, (R,E)-3-(2-((4-(2-(4-chlorophenyl)-2,3-dihydrobenzo [b][1,4]dioxin-5-yl)piperidin-1-yl)methyl)-1-((4-methyloxazol-5-yl)methyl)-1H-imidazol-5-yl)acrylic acid] is 1.6 nM. Then `CC1(c2ccc(Cl)cc2F)Oc2cccc(C3CCN(Cc4ncc(/C=C/C(=O)O)n4CCN4CCOC4=O)CC3)c2O1` (stereo not shown) [Compound 200, (E)-3-(2-((4-(2-(4-chloro-2-fluorophenyl)-2-methylbenzo[d][1,3]dioxol-4-yl)piperidin-1-yl)methyl)-1-(2-(2-oxooxazolidin-3-yl)ethyl)-1H-imidazol-5-yl)acrylic acid], with 0.22 nM.

On to `CC1(c2ccc(Cl)cc2F)Oc2cccc(C3CCN(Cc4ncc(/C=C/C(=O)O)n4CCOC4CC4)CC3)c2O1` (stereo not shown) [Compound 201, (E)-3-(2-((4-(2-(4-chloro-2-fluorophenyl)-2-methylbenzo[d][1,3]dioxol-4-yl)piperidin-1-yl)methyl)-1-(2-cyclopropoxyethyl)-1H-imidazol-5-yl)acrylic acid], for which the EC50 came out at 0.034 nM. With `Cc1ncc(Cn2c(/C=C/C(=O)O)cnc2CN2CCC(c3cccc4c3OC(C)(c3ccc(Cl)cc3F)O4)CC2)o1` (stereo not shown) [Compound 202, (E)-3-(2-((4-(2-(4-chloro-2-fluorophenyl)-2-methylbenzo[d][1,3]dioxol-4-yl)piperidin-1-yl)methyl)-1-((2-methyloxazol-5-yl)methyl)-1H-imidazol-5-yl)acrylic acid], the concentration for a half-maximal effect (EC50) came out at 0.26 nM. Then `CCc1nocc1Cn1c(/C=C/C(=O)O)cnc1CN1CCC(c2cccc3c2OC(C)(c2ccc(Cl)cc2F)O3)CC1` (stereo not shown) [Compound 203, (E)-3-(2-((4-(2-(4-chloro-2-fluorophenyl)-2-methylbenzo[d][1,3]dioxol-4-yl)piperidin-1-yl)methyl)-1-((3-ethylisoxazol-4-yl)methyl)-1H-imidazol-5-yl)acrylic acid], with 0.058 nM; and `Cc1nocc1Cn1c(/C=C/C(=O)O)cnc1CN1CCC(c2cccc3c2OC(C)(c2ccc(Cl)cc2F)O3)CC1` (stereo not shown) [Compound 204, (E)-3-(2-((4-(2-(4-chloro-2-fluorophenyl)-2-methylbenzo[d][1,3]dioxol-4-yl)piperidin-1-yl)methyl)-1-((3-methylisoxazol-4-yl)methyl)-1H-imidazol-5-yl)acrylic acid], with 0.012 nM; and `O=C(O)/C=C/c1cnc(CN2CCC(c3cccc4c3OC[C@@H](c3ccc(Cl)cc3)O4)CC2)n1Cc1cnco1` [Compound 205a, (R,E)-3-(2-((4-(2-(4-chlorophenyl)-2,3-dihydrobenzo[b][1,4]dioxin-5-yl)piperidin-1-yl)methyl)-1-(oxazol-5-ylmethyl)-1H-imidazol-5-yl)acrylic acid], with 0.26 nM. With `Cn1cncc1Cn1c(/C=C/C(=O)O)cnc1CN1CCC(c2cccc3c2OC[C@@H](c2ccc(Cl)cc2)O3)CC1` [Compound 206a, (R,E)-3-(2-((4-(2-(4-chlorophenyl)-2,3-dihydrobenzo[b][1,4]dioxin-5-yl)piperidin-1-yl)methyl)-1-((1-methyl-1H-imidazol-5-yl)methyl)-1H-imidazol-5-yl)acrylic acid], the EC50 amounted to 0.19 nM.

`CCn1cncc1Cn1c(/C=C/C(=O)O)cnc1CN1CCC(c2cccc3c2OC[C@@H](c2ccc(Cl)cc2)O3)CC1` [Compound 207a, (R,E)-3-(2-((4-(2-(4-chlorophenyl)-2,3-dihydrobenzo [b][1,4]dioxin-5-yl)piperidin-1-yl)methyl)-1-((1-ethyl-1H-imidazol-5-yl)methyl)-1H-imidazol-5-yl)acrylic acid]: the 50% effective concentration (EC50) is 0.016 nM.

Turning to `CCn1cncc1Cn1c(/C=C(\C)C(=O)O)cnc1CN1CCC(c2cccc3c2OC[C@@H](c2ccc(Cl)cc2)O3)CC1` [Compound 208a, (R,E)-3-(2-((4-(2-(4-chlorophenyl)-2,3-dihydrobenzo [b][1,4]dioxin-5-yl)piperidin-1-yl)methyl)-1-((1-ethyl-1H-imidazol-5-yl)methyl)-1H-imidazol-5-yl)-2-methylacrylic acid], the concentration for a half-maximal effect (EC50) was 0.011 nM. Then `O=C(O)/C=C/c1cnc(CN2CCC(c3cccc4c3OC[C@@H](c3ccc(Cl)cc3)O4)CC2)n1Cc1cccnc1` [Compound 209a, (R,E)-3-(2-((4-(2-(4-chlorophenyl)-2,3-dihydrobenzo[b][1,4]dioxin-5-yl)piperidin-1-yl)methyl)-1-(pyridin-3-ylmethyl)-1H-imidazol-5-yl)acrylic acid], with 0.54 nM; and `O=C(O)/C=C/c1cnc(CN2CCC(c3cccc4c3OC[C@@H](c3ccc(Cl)cc3)O4)CC2)n1Cc1ccccc1` [Compound 210a, (R,E)-3-(1-benzyl-2-((4-(2-(4-chlorophenyl)-2,3-dihydrobenzo[b][1,4]dioxin-5-yl)piperidin-1-yl)methyl)-1H-imidazol-5-yl)acrylic acid], with 0.43 nM; and `O=C(O)/C=C/c1cnc(CN2CCC(c3cccc(OCc4ccc(Cl)cc4F)n3)CC2)n1CC1CCC1` [Compound 211, (E)-3-(2-((4-(6-((4-chloro-2-fluorobenzyl)oxy)pyridin-2-yl)piperidin-1-yl)methyl)-1-(cyclobutylmethyl)-1H-imidazol-5-yl)acrylic acid], with 0.54 nM.

`CS(=O)(=O)CCn1c(/C=C/C(=O)O)cnc1CN1CCC(c2cccc(OCc3ccc(Cl)cc3F)n2)CC1` [Compound 212, (E)-3-(2-((4-(6-((4-chloro-2-fluorobenzyl)oxy)pyridin-2-yl)piperidin-1-yl)methyl)-1-(2-(methylsulfonyl)ethyl)-1H-imidazol-5-yl)acrylic acid]: the EC50 came out at 6.4 nM. The figure for `O=C(O)/C=C/c1cnc(CN2CCC(c3cccc(OCc4ccc(Cl)cc4F)n3)CC2)n1CC1CCCO1` (stereo not shown) [Compound 213, (E)-3-(2-((4-(6-((4-chloro-2-fluorobenzyl)oxy)pyridin-2-yl)piperidin-1-yl)methyl)-1-((tetrahydrofuran-2-yl)methyl)-1H-imidazol-5-yl)acrylic acid] is 4.2 nM; for `CCn1cncc1Cn1c(/C=C/C(=O)O)cnc1CN1CCC(c2cccc(OCc3ccc(Cl)cc3F)n2)CC1` [Compound 214, (E)-3-(2-((4-(6-((4-chloro-2-fluorobenzyl)oxy)pyridin-2-yl)piperidin-1-yl)methyl)-1-((1-ethyl-1H-imidazol-5-yl)methyl)-1H-imidazol-5-yl)acrylic acid] it is 0.0032 nM. The figure for `O=C(O)/C(F)=C/c1cnc(CN2CCC(c3cccc(OCc4ccc(Cl)cc4F)n3)CC2)n1C[C@@H]1CCO1` [Compound 215a, (S,Z)-3-(2-((4-(6-((4-chloro-2-fluorobenzyl)oxy)pyridin-2-yl)piperidin-1-yl)methyl)-1-(oxetan-2-ylmethyl)-1H-imidazol-5-yl)-2-fluoroacrylic acid] is 55 nM.

The record behind these values is US11897851B2, “Heterocyclic GLP-1 agonists” (Gasherbrum Bio, Inc., priority 2021, dated 2024).
